The text below walks through data of US7868006B2, “Heterocyclic substituted piperazines with CXCR3 antagonist activity” (Schering Corporation, priority 2005, dated 2011).

The IC50 is the midpoint of a concentration-inhibition curve.

The target of the test is T1, human CXCR3 (N-delta 4) (Homo sapiens, UniProt P49682).
T1 construct: CD8 leader (N); Flag tag (N); expressed in transfected cells; host or cells: mouse pro-B Ba/F3 cells, stably transfected with pME18Sneo-hCXCR3 (N-delta 4); membrane preparation
T1 sequence (P49682 5-368 limits assumed): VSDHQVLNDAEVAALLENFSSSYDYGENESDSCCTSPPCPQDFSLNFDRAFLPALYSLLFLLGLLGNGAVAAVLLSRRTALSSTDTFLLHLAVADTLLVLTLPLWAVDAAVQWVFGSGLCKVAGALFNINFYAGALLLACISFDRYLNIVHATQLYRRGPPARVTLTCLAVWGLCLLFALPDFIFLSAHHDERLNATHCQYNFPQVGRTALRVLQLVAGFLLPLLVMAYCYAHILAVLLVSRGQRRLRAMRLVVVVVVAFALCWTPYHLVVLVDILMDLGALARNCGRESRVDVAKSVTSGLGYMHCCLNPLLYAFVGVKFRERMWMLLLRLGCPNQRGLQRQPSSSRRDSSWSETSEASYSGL
The test can be described thus: Human CXCR3 (N-delta 4) Scintillation Proximity Assay (SPA), [125I] IP-10 binding. As to conditions: IC50 rating; Ba/F3-hCXCR3 (N-delta 4) membranes, 25 pM [125I] IP-10; read-out: IC50. The text has this:
The inventive compounds can readily be evaluated to determine activity at The CXCR3 receptors by known methods, such as, for example, Development of Human CXCR3 (N-delta 4) Binding Assay.
Cloning and Expression of Human CXCR3 (N-delta 4):
The DNA encoding human CXCR3 was cloned by PCR using human genomic DNA (Promega, Madison, Wis.) as a template. The PCR primers were designed based on the published sequence of human orphan receptor GPR9 (1) with incorporated restriction sites, a Kozak consensus sequence, CD8 leader and Flag tag. The PCR product was subcloned into the mammalian expression vector pME18Sneo, a derivative of the SR-alpha expression vector (designated as pME18Sneo-hCXCR3 (N-delta 4).
IL-3-dependent mouse pro-B cells Ba/F3 were transfected by electroporation in 0.4 ml Dulbecco's PBS containing 4×10^6 cells with 20 μg of pME18Sneo-hCXCR3 (N-delta 4) plasmid DNA. Cells were pulsed at 400 Volts, 100 OHMs, 960 μFd. The transfected cells were under selection with 1 mg/ml G418 (Life Technologies, Gaithersburg, Md.). G418-resistant Ba/F3 clones were screened for CXCR3 expression by specific binding of [^125I] IP-10 (NEN Life Science Products, Boston, Mass.).
Preparation of Ba/F3-hCXCR3 (N-delta 4) Membranes:
Ba/F3 cells expressing human CXCR3 (N-delta 4) were pelleted and resuspended in the lysis buffer containing 10 mM HEPES, pH 7.5 and Complete® protease inhibitors (1 tablet per 100 ml) (Boehringer Mannheim, Indianapolis, Ind.) at a cell density of 20×10^6 cells per ml. After 5 minutes incubation on ice, cells were transferred to 4639 cell disruption bomb (Parr Instrument, Moline, Ill.) and applied with 1,500 psi of nitrogen for 30 minutes on ice. Large cellular debris was removed by centrifugation at 1,000×g. Cell membrane in the supernatant was sedimented at 100,000×g. The membrane was resuspended in the lysis buffer supplemented with 10% sucrose and stored at −80° C. Total protein concentration of the membrane was determined by BCA method from Pierce (Rockford, Ill.).
Human CXCR3 (N-delta 4) Scintillation Proximity Assay (SPA):
For each assay point, 2 μg of membrane was preincubated for 1 hr with 300 μg wheat germ agglutinin (WGA) coated SPA beads (Amersham, Arlington Heights, Ill.) in the binding buffer (50 mM HEPES, 1 mM CaCl2, 5 mM MgCl2, 125 mM NaCl, 0.002% NaN3, 1.0% BSA) at room temperature. The beads were spun down, washed once, resuspended in the binding buffer and transferred to a 96-well Isoplate (Wallac, Gaithersburg, Md.). 25 pM of [^125I] IP-10 with tested compounds in a series of titration were added to start the reaction. After 3 hr reaction at room temperature, the amount of [^125I] IP-10 bound to the SPA beads was determined with a Wallac 1450 Microbeta counter.
The Ki values for the various example compounds of the present invention are given in the afore-mentioned Table 1. From these values, it would be apparent to the skilled artisan that the compounds of the invention have excellent utility CXCR3 antagonists.
(Scintillation proximity formats need no separation of bound from free tracer.)
In the case of `CCNc1nnc(-c2cnc(N3C[C@H](CC)N(C4CCN(C(=O)c5ccc(C(F)(F)F)nc5N)CC4)C[C@H]3C)c(C)n2)o1` [Compound 189], the IC50 is < 25 nM. `CCNc1nnc(-c2cnc(N3CCN(C4CCN(C(=O)c5ccc(CC)cc5)CC4)[C@@H](CC)C3)c(C)n2)o1` [Compound 139]: the IC50 was 25 to 100 nM.

In the case of `CCNc1nnc(-c2cnc(N3C[C@H](CC)N(C4CCN(Cc5ccc(O)cc5)CC4)C[C@H]3C)c(C)n2)o1` [Compound 136], the IC50 was < 25 nM. `CCNc1nnc(-c2nc(C)c(N3CCN(C4CCN(C(=O)c5ccc(Cl)cc5)CC4)[C@@H](CC)C3)nc2C)o1` [Compound 157]: the IC50 is < 25 nM. The same measure for `CC[C@H]1CN(c2nc(N)c(-c3nc(N)no3)nc2Cl)CCN1C1CCN(C(=O)c2ccc(Cl)nc2N)CC1` [Compound 84]: > 100 nM. As to `CC[C@H]1CN(c2ncc(-c3ncc[nH]3)nc2C)[C@H](C)CN1C1CCN(C(=O)c2ccc(Cl)nc2N)CC1` [Compound 130], the IC50 is < 25 nM.

Take `CCNc1nnc(-c2cnc(N3C[C@H](CC)N(C4CCN(C(=O)c5ccc(Cl)cc5)CC4)C[C@H]3C)c(C(F)(F)F)n2)o1` [Compound 191]: the IC50 is < 25 nM. With `CCNc1nnc(-c2cnc(N3C[C@H](CC)N(C4CCN(Cc5ccc(F)cc5)CC4)C[C@H]3C)c(C(F)(F)F)n2)o1` [Compound 179], the IC50 is < 25 nM. Consider `CCNc1nnc(-c2cnc(N3C[C@H](CC)N(C4CCN(C(=O)c5ccc(O)cc5)CC4)C[C@H]3C)c(C)n2)o1` [Compound 145], for which the IC50 lay within 25 to 100 nM. Under `CC[C@H]1CN(c2nc(N)c(-c3nnc(C)o3)nc2Cl)CCN1C1CCN(C(=O)c2ccc(Cl)cc2NS(C)(=O)=O)CC1` [Compound 92] stands > 100 nM; under `CC[C@H]1CN(c2nc(N)c(-c3nnc(C)o3)nc2Cl)CCN1C1CCN(Cc2cnc(N)nc2)CC1` [Compound 95], > 100 nM. Regarding `CC[C@H]1CN(c2ncc(-c3nc[nH]n3)nc2C)[C@H](C)CN1C1CCN(C(=O)c2ccc(Cl)c(F)c2)CC1` [Compound 134], the IC50 was < 25 nM. The same measure for `CC[C@H]1CN(c2nc(N)c(-c3nnc(NCCO)o3)nc2Cl)CCN1C1CCN(C(=O)c2ccc(Cl)nc2N)CC1` [Compound 41]: < 25 nM.

For the molecule `CCNc1nnc(-c2cnc(N3C[C@H](CC)N(C4CCN(C(C(=O)OC)c5ccc(F)c(F)c5)CC4)C[C@H]3C)c(C)n2)o1` (stereo partly shown) [Compound 188], the IC50 was < 25 nM.

For `CCNc1nnc(-c2nc(Cl)c(N3CCN(C4CCN(C(=O)c5ccc(Cl)nc5N)CC4)[C@@H](CC)C3)nc2N)o1` [Compound 14], the IC50 is < 25 nM. In the case of `CC[C@H]1CN(c2nc(N)c(-c3nnc(C)o3)nc2Cl)CCN1C1CCN(C(=O)c2ccc(Cl)cc2)CC1` [Compound 43], the IC50 is < 25 nM. The same measure for `CC[C@H]1CN(c2nc(N)c(-c3nnc(C)o3)nc2Cl)CCN1C1CCN(C(=O)c2cc(F)c(N)nc2Cl)CC1` [Compound 82]: > 100 nM; for `CC[C@H]1CN(c2ncc(-c3nnc(C4CC4)[nH]3)nc2C)CCN1C1CCN(C(=O)c2ccc(Cl)cc2)CC1` [Compound 140]: < 25 nM.

As for `CC[C@H]1CN(c2ncc(-c3nnc(C)o3)nc2C)CCN1C1CCN(C(=O)c2ccc(OC(F)(F)F)cc2)CC1` [Compound 65], the IC50 is < 25 nM. Under `CCNc1nnc(-c2cnc(N3CCN(C4CCN(C(=O)c5cc(F)c(Cl)cc5F)CC4)[C@@H](CC)C3)c(Cl)n2)o1` [Compound 187] stands < 25 nM. Consider `CC[C@H]1CN(c2ncc(-c3nc[nH]n3)nc2C)CCN1C1CCN(C(=O)c2ccc(Cl)nc2N)CC1` [Compound 38], for which the IC50 was < 25 nM. Consider `CC[C@H]1CN(c2nc(N)c(-c3nnc(C(N)=O)o3)nc2Cl)CCN1C1CCN(C(=O)c2ccc(Cl)cc2)CC1` [Compound 70], for which the IC50 was < 25 nM.

`CCNc1nnc(-c2nc(C)c(N3CCN(C4CCN(C(=O)c5ccc(Cl)nc5N)CC4)[C@@H](CC)C3)nc2N)o1` [Compound 174]: the IC50 was < 25 nM.

For `CCNc1nnc(-c2cnc(N3CCN(C4CCN(C(=O)c5ccc(Cl)cc5)CC4)[C@@H](CC)C3)c(CC)n2)o1` [Compound 158], the IC50 is < 25 nM.

Consider `CCNc1nnc(-c2cnc(N3CCN(C4CCN(CCC(=O)c5ccc(Cl)cc5)CC4)[C@@H](CC)C3)c(C)n2)o1` [Compound 169], for which the half-maximal inhibitory concentration (IC50) is < 25 nM. Regarding `CCNc1nnc(-c2cnc(N3CCN(C4CCN([C@H](CO)c5ccc(Cl)cc5)CC4)[C@@H](CC)C3)c(C)n2)o1` [Compound 163], the IC50 was < 25 nM.

`CC[C@H]1CN(c2nc(N)c(-c3nnc(CNC(=O)C(F)(F)F)o3)nc2Cl)CCN1C1CCN(C(=O)c2ccc(Cl)nc2N)CC1` [Compound 46]: the IC50 is < 25 nM. For `CC[C@H]1CN(c2ncc(-c3nnc(NC(C)C)o3)nc2C)CCN1C1CCN(C(=O)c2ccc(Cl)nc2N)CC1` [Compound 171], the IC50 was < 25 nM. The same measure for `CC[C@H]1CN(c2ncc(-c3nc[nH]n3)nc2C)CCN1C1CCN(C(=O)c2ccc(Cl)c(F)c2)CC1` [Compound 125]: < 25 nM. In the case of `CC[C@H]1CN(c2ncc(-c3nnc(N)o3)nc2C)[C@H](C)CN1C1CCN(C(=O)c2ccc(Cl)cc2)CC1` [Compound 102], the IC50 is < 25 nM. Under `CCNc1nnc(-c2cnc(N3CCN(C4CCN(Cc5ccc(F)cc5)CC4)[C@@H](CC)C3)c(C)n2)o1` [Compound 117] stands < 25 nM; under `CC[C@H]1CN(c2nc(N)c(-c3nnc(C(F)(F)F)o3)nc2Cl)CCN1C1CCN(Cc2ccc(Cl)cc2)CC1` [Compound 59], < 25 nM.

With `CCNc1nnc(-c2cnc(N3CCN(C4CCN(Cc5ccc(Cl)cc5)CC4)[C@@H](CC)C3)c(C)n2)o1` [Compound 132], the IC50 was < 25 nM. The same measure for `CC[C@H]1CN(c2nc(N)c(-c3n[nH]c(=S)n3C)nc2Cl)CCN1C1CCN(Cc2ccc(Cl)cc2)CC1` [Compound 86]: > 100 nM. Under `CC[C@H]1CN(c2ncc(-c3nnc(N)o3)nc2C)CCN1C1CCN(C(=O)c2ccc(C(F)(F)F)cc2)CC1` [Compound 72] stands < 25 nM; under `CCCNc1nnc(-c2nc(Cl)c(N3CCN(C4CCN(C(=O)c5ccc(Cl)nc5N)CC4)[C@@H](CC)C3)nc2N)o1` [Compound 12], < 25 nM. Under `CCNc1nnc(-c2cnc(N3C[C@H](CC)N(C4CCN(C(=O)c5ccc(OC)cc5)CC4)C[C@H]3C)c(C)n2)o1` [Compound 152] stands 25 to 100 nM; under `CC[C@H]1CN(c2nc(N)c(-c3nnc(NC)o3)nc2Cl)CCN1C1CCN(C(C(=O)OC)c2ccc(Cl)cc2)CC1` (stereo partly shown) [Compound 190], < 25 nM.

For `CCNc1nnc(-c2cnc(N3C[C@H](CC)N(C4CCN(C(=O)c5ccc(F)c(F)c5)CC4)C[C@H]3C)c(C)n2)o1` [Compound 160], the IC50 is < 25 nM.

With `CCNc1nnc(-c2cnc(N3C[C@H](CC)N(C4CCN(C(=O)c5ccc(Cl)nc5N)CC4)C[C@H]3C)c(C)n2)o1` [Compound 97], the IC50 is < 25 nM. For `CC[C@H]1CN(c2nc(N)c(-c3nnc(C)o3)nc2Cl)CCN1C1CCN(C(=O)c2ccc(Cl)nc2)CC1` [Compound 57], the IC50 is < 25 nM. Under `CC[C@H]1CN(c2nc(N)c(-c3nnc(C)o3)nc2Cl)CCN1C1CCN([C@H](CO)c2ccc(Cl)cc2)CC1` [Compound 62] stands < 25 nM; under `CCNc1nnc(-c2cnc(N3CCN(C4CCN(Cc5ccc(C(F)(F)F)cc5)CC4)[C@@H](CC)C3)c(C)n2)o1` [Compound 166], < 25 nM.
